Holding throughout (format): cell-based
Assay [1] relates to Ba/F3 cells expressing del19/T790M/C797S (EGFR-DTC). Put plainly: Growth inhibition (GI50) of Ba/F3 cells expressing del19/T790M/C797S (EGFR-DTC), Celltiter glo. The following applies: Mus musculus, BaF3, 72 h. The gist of the method:
(§1)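 Steps: plate engineered Ba/F3 cells (100,000 cells/ml); wait 4 h; add compound as a 4-fold, 10-point dilution series made from 2 mM stock, DMSO 0.5%; incubate 72 h at 37 °C under 5% CO2; measure ATP-based viability with CellTiter-Glo; calculate GI50.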

Assay [2] concerns Ba/F3 cells expressing EGFR-wt. In words: Growth inhibition (GI50) of Ba/F3 cells expressing EGFR-wt, Celltiter glo. The following applies: Mus musculus, BaF3, 72 h. In a few lines:
as §1
A general note: In ATP-based viability assays light output follows the ATP content of the culture.

The test system of assay [3] is parental Ba/F3 cell line. In words: Growth inhibition (GI50) of the parental Ba/F3 cell line (not introduced with EGFR variants), Celltiter glo. The following applies: Mus musculus, BaF3, 72 h, parental Ba/F3 cells. The gist of the method: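 Parental Ba/F3 cells (100,000 cells/ml) were treated with 10-point, 4-fold compound dilutions (0.5% DMSO; top stock 2 mM) for 72 h at 37 °C, 5% CO2. Viability was read by CellTiter-Glo; GI50 is the concentration (μM) giving 50% growth inhibition.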

The subject of assay [4] is Ba/F3 cells expressing L858R/T790M/C797S (EGFR-LTC). Put plainly: Growth inhibition (GI50) of Ba/F3 cells expressing L858R/T790M/C797S (EGFR-LTC), Celltiter glo. The following applies: Mus musculus, BaF3, 72 h. The gist of the method:
as §1

Some results are limits rather than exact numbers.

On to `CC(=O)Nc1cc(Cl)c(Cl)cc1Nc1nc(Nc2ccc(N3CCC(N4CCN(C)CC4)CC3)cc2Cl)ncc1Cl` [Example 77, N-(4,5-dichloro-2-((5-chloro-2-((2-chloro-4-(4-(4-methylpiperazin-1-yl)piperidin-1-yl)phenyl)amino)pyrimidin-4-yl)amino)phenyl)acetamide], for which the GI50 in assay [1], in assay [2], in assay [3] and in assay [4] was 500 to 2000 nM each time.
Regarding `COc1cc(N2CCC(N3CCN(C)CC3)CC2)c(C)cc1Nc1ncc(Cl)c(N(C)c2cc(Cl)c(Cl)cc2N(C)C(C)=O)n1` [Example 78, N-(4,5-dichloro-2-((5-chloro-2-((2-methoxy-5-methyl-4-(4-(4-methylpiperazin-1-yl)piperidin-1-yl)phenyl)amino)pyrimidin-4-yl)(methyl)amino)phenyl)-N-methylacetamide], the GI50 in assay [1], in assay [2], in assay [3] and in assay [4] was 2000 to 10000 nM in each case.
Regarding `COc1nc(N2CCC(N3CCN(C)CC3)CC2)ccc1Nc1ncc(Cl)c(N(C)c2cc(Cl)c(Cl)cc2N(C)C(C)=O)n1` [Example 79, N-(4,5-dichloro-2-((5-chloro-2-((2-methoxy-6-(4-(4-methylpiperazin-1-yl)piperidin-1-yl)pyridin-3-yl)amino)pyrimidin-4-yl)(methyl)amino)phenyl)-N-methylacetamide], the GI50 (in general, the concentration giving 50% growth inhibition) in assay [1] is 500 to 2000 nM; in assay [2], 2000 to 10000 nM; in assay [3], 500 to 2000 nM; in assay [4] it was 500 to 2000 nM.
`COc1nc(N2CCC(N3CCN(C)CC3)CC2)ccc1Nc1ncc(Cl)c(Nc2cc(Cl)ccc2NS(C)(=O)=O)n1` [Example 81]: the GI50 was 500 to 2000 nM in assay [1], 2000 to 10000 nM in assay [2], 500 to 2000 nM in assay [3] and 500 to 2000 nM in assay [4].
Consider `COc1cc(N2CCC(N3CCN(C)CC3)CC2)ccc1Nc1ncc(Cl)c(Nc2cc(Cl)ccc2NS(C)(=O)=O)n1` [Example 82, N-(4-chloro-2-((5-chloro-2-((2-methoxy-4-(4-(4-methylpiperazin-1-yl)piperidin-1-yl)phenyl)amino)pyrimidin-4-yl)amino)phenyl)methanesulfonamide], for which the GI50 in assay [1] lay within 100 to 500 nM; in assay [2] it was 500 to 2000 nM; in assay [3], 500 to 2000 nM; in assay [4] it was 100 to 500 nM.
On to `COc1nc(N2CCC(N3CCN(C)CC3)CC2)c(C)cc1Nc1ncc(Cl)c(Nc2cc(Cl)ccc2NS(C)(=O)=O)n1` [Example 83, N-(4-chloro-2-((5-chloro-2-((2-methoxy-5-methyl-6-(4-(4-methylpiperazin-1-yl)piperidin-1-yl)pyridin-3-yl)amino)pyrimidin-4-yl)amino)phenyl)methanesulfonamide], for which the GI50 in assay [1] was 100 to 500 nM; in assay [2] it was 500 to 2000 nM; in assay [3] it was 2000 to 10000 nM; in assay [4], 100 to 500 nM.
Take `CN1CCN(C2CCN(c3ccc(Nc4ncc(Cl)c(Nc5cc(Cl)ccc5NS(C)(=O)=O)n4)cc3F)CC2)CC1` [Example 84, N-(4-chloro-2-((5-chloro-2-((3-fluoro-4-(4-(4-methylpiperazin-1-yl)piperidin-1-yl)phenyl)amino)pyrimidin-4-yl)amino)phenyl)methanesulfonamide]: the GI50 fell in the range of 100 to 500 nM in assay [1], 100 to 500 nM in assay [2], 500 to 2000 nM in assay [3] and 100 to 500 nM in assay [4].
On to `COc1cc(N2CCC(N3CCC(N(C)C)C3)CC2)c(C)cc1Nc1ncc(Br)c(Nc2cc(Cl)ccc2NS(C)(=O)=O)n1` (stereo not shown) [Example 91, N-(2-((5-bromo-2-((4-(4-(3-(dimethylamino)pyrrolidin-1-yl)piperidin-1-yl)-2-methoxy-5-methylphenyl)amino)pyrimidin-4-yl)amino)-4-chlorophenyl)methanesulfonamide], for which the GI50 in assay [1] was 1 to 25 nM; in assay [2], 100 to 500 nM; in assay [3], 2000 to 10000 nM; in assay [4] it was 25 to 100 nM.
For `COc1cc(N2CCC(N3CCN(C)CC3)CC2)c(F)cc1Nc1ncc(Br)c(Nc2cc(Cl)ccc2NS(C)(=O)=O)n1` [Example 92, N-(2-((5-bromo-2-((5-fluoro-2-methoxy-4-(4-(4-methylpiperazin-1-yl)piperidin-1-yl)phenyl)amino)pyrimidin-4-yl)amino)-4-chlorophenyl)methanesulfonamide], in that order: 1 to 25 nM, 100 to 500 nM, 2000 to 10000 nM and 25 to 100 nM.
The corresponding values for `Cc1cc(Nc2ncc(Br)c(Nc3cc(Cl)ccc3NS(C)(=O)=O)n2)c(Cl)cc1N1CCC(N2CCN(C)CC2)CC1` [Example 93, N-(2-((5-bromo-2-((2-chloro-5-methyl-4-(4-(4-methylpiperazin-1-yl)piperidin-1-yl)phenyl)amino)pyrimidin-4-yl)amino)-4-chlorophenyl)methanesulfonamide] are 1 to 25 nM, 500 to 2000 nM, 2000 to 10000 nM and 25 to 100 nM.
`Cc1cc(Nc2ncc(Br)c(Nc3cc(Cl)ccc3NS(C)(=O)=O)n2)c(Cl)cc1N1CCC(N2CCC(N(C)C)C2)CC1` (stereo not shown) [Example 96, N-(2-((5-bromo-2-((2-chloro-4-(4-(3-(dimethylamino)pyrrolidin-1-yl)piperidin-1-yl)-5-methylphenyl)amino)pyrimidin-4-yl)amino)-4-chlorophenyl)methanesulfonamide]: the GI50 is 500 to 2000 nM in assay [1], 500 to 2000 nM in assay [2], over 10000 nM in assay [3] and 500 to 2000 nM in assay [4].
Consider `COc1cc(N2CCC(N3CCN(C)CC3)CC2)c(C)cc1Nc1ncc(Cl)c(Nc2cc(Cl)c(Cl)cc2NS(C)(=O)=O)n1` [Example 99, N-(4,5-dichloro-2-((5-chloro-2-((2-methoxy-5-methyl-4-(4-(4-methylpiperazin-1-yl)piperidin-1-yl)phenyl)amino)pyrimidin-4-yl)amino)phenyl)methanesulfonamide], for which the GI50 is 25 to 100 nM in assay [1], 500 to 2000 nM in assay [2], over 10000 nM in assay [3] and 25 to 100 nM in assay [4].
As for `COc1nc(N2CCC(N3CCN(C)CC3)CC2)c(C)cc1Nc1ncc(Cl)c(Nc2cc(Cl)c(Cl)cc2NS(C)(=O)=O)n1` [Example 100], the GI50 in assay [1] was in the range of 100 to 500 nM; in assay [2], 500 to 2000 nM; in assay [3] it was 2000 to 10000 nM; in assay [4] it was 100 to 500 nM.
Consider `CN1CCN(C2CCN(c3ccc(Nc4ncc(Cl)c(Nc5cc(Cl)c(Cl)cc5NS(C)(=O)=O)n4)cc3F)CC2)CC1` [Example 101, N-(4,5-dichloro-2-((5-chloro-2-((3-fluoro-4-(4-(4-methylpiperazin-1-yl)piperidin-1-yl)phenyl)amino)pyrimidin-4-yl)amino)phenyl)methanesulfonamide], for which the GI50 in assay [1] lay in the range of 100 to 500 nM; in assay [2], 100 to 500 nM; in assay [3] it was 2000 to 10000 nM; in assay [4], 100 to 500 nM.
For the compound `CN1CCN(C2CCN(c3ccc4cc(Nc5ncc(Cl)c(Nc6cc(Cl)c(Cl)cc6NS(C)(=O)=O)n5)ccc4n3)CC2)CC1` [Example 102, N-(4,5-dichloro-2-((5-chloro-2-((2-(4-(4-methylpiperazin-1-yl)piperidin-1-yl)quinolin-6-yl)amino)pyrimidin-4-yl)amino)phenyl)methanesulfonamide], the GI50 in assay [1] lay within 500 to 2000 nM; in assay [2], 500 to 2000 nM; in assay [3] it was 2000 to 10000 nM; in assay [4], 100 to 500 nM.
Turning to `COc1cc(N2CCC(N3CCN(C)CC3)CC2)c(Cl)cc1Nc1ncc(Cl)c(Nc2cc(Cl)c(Cl)cc2NS(C)(=O)=O)n1` [Example 103], the GI50 was in the range of 100 to 500 nM in assay [1], 500 to 2000 nM in assay [2], 2000 to 10000 nM in assay [3] and 25 to 100 nM in assay [4].
The corresponding values for `COc1cc(N2CCC(N(C)CCN(C)C)CC2)c(C)cc1Nc1ncc(Cl)c(Nc2cc(Cl)c(Cl)cc2NS(C)(=O)=O)n1` [Example 104, N-(4,5-dichloro-2-((5-chloro-2-((4-(4-((2-(dimethylamino)ethyl)(methyl)amino)piperidin-1-yl)-2-methoxy-5-methylphenyl)amino)pyrimidin-4-yl)amino)phenyl)methanesulfonamide] are 500 to 2000 nM, 500 to 2000 nM, 500 to 2000 nM and 500 to 2000 nM.
The corresponding values for `COc1cc(N(C)CCCN2CCN(C)CC2)c(C)cc1Nc1ncc(Cl)c(Nc2cc(Cl)c(Cl)cc2NS(C)(=O)=O)n1` [Example 105, N-(4,5-dichloro-2-((5-chloro-2-((2-methoxy-5-methyl-4-(methyl(3-(4-methylpiperazin-1-yl)propyl)amino)phenyl)amino)pyrimidin-4-yl)amino)phenyl)methanesulfonamide] are over 10000 nM, over 10000 nM, over 10000 nM and over 10000 nM.
The corresponding values for `COc1cc(N2CCC(N3CCN(C)CC3)CC2)c(C)cc1Nc1ncc(Br)c(Nc2cc(C)ccc2NS(C)(=O)=O)n1` [Example 106, N-(2-((5-bromo-2-((2-methoxy-5-methyl-4-(4-(4-methylpiperazin-1-yl)piperidin-1-yl)phenyl)amino)pyrimidin-4-yl)amino)-4-methylphenyl)methanesulfonamide] are 1 to 25 nM, 500 to 2000 nM, 500 to 2000 nM and 25 to 100 nM.

The values above are taken from US20240228458A1, “PYRIMIDINE DERIVATIVE HAVING PROTEIN KINASE INHIBITORY ACTIVITY, AND THERAPEUTIC PHARMACEUTICAL COMPOSITION COMPRISING SAME” (THERAPEX CO., LTD., priority 2021, published 2024).
